Measured values: US9347937B2, “Vaccine comprising Amb a 1 peptides for use in the treatment of ragweed allergy” (Circassia Limited, priority 2008, dated 2016)
No end group written: not given here.

Columns and labels:
[1] = In vitro solubility testing in an acidic environment; type: physicochemical
Protocol: Accordingly, the inventors have determined that RGW03B is preferred over RGW03.
The modified peptides were tested for solubility and their ability to induce IL-10 from PBMC in the presence of the mixture of peptides identified in FIG. 1 (RGW01+RGW03B+RGW04A+RGW02+RGW05+RGW06A). Controls included the peptide mixture with no RGW07 variant and with whole Amb a 1 allergen.

[2] = test system: blood basophils from ragweed allergic subjects; experiment: Histamine release assay (Immunotech Histamine Release Immunoassay kit); conditions: for Subjects with histamine release >15% of positive control: 43 or 20 subjects, highest dose tested 10 μg/ml
Protocol: Peptides or combinations of peptides that induce histamine release frequently may be considered unsuitable for inclusion in the peptide vaccine.
Histamine release requires the crosslinking of adjacent specific IgE molecules on the surface of the basophil.
Histamine release from fresh peripheral whole blood from ragweed allergic subjects was evaluated. Peripheral blood basophils were used as a surrogate for tissue mast cells which were not practical to assay.
Histamine release in response to whole ragweed allergen extract was measured in each subject to confirm basophil sensitisation. A positive control, representing total histamine release, generated by freeze/thawing the cells twice, was included in each assay. A negative control for spontaneous histamine release was generated by incubating cells in buffer only.
The assay was performed using the Immunotech Histamine Release Immunoassay kit according to the manufacturer's instructions. Following the in vitro challenge of blood basophils with peptides, peptide mixes, whole allergen or buffer in microtitre plate wells, supernatants were removed and the histamine in the samples converted to acyl histamine. Acylated samples were tested by a competitive acyl histamine ELISA.
Peptides were assayed for their ability to induce histamine release over a 5 log 10 range (1 to 10,000 ng/ml). The concentration range assayed was selected based on theoretical in vivo doses of peptide that may be achieved during therapy. […] Whole ragweed allergen extract was used over a slightly higher concentration range (10 to 100,000 ng/ml).
Single measurements were performed for each dilution. After completion of the ELISA, individual histamine levels were determined by interpolation from the standard curve generated in the ELISA assay. Results from samples were adjusted to allow for dilution.

[3] = pH 2.97 0.1 mM HCl, 0.5% (w/v) 1-thioglycerol (ca. 46 mM), 230 mM trehalose
[4] = pH 2.97, Table 6, RGW07 and variants, acidic environment

| Sequence | solubility [1, 3] [µg/mL] | Maximum histamine release (% of positive control at 10 μg/mL) [2] [%] | Mean histamine release of 43 or 20 subjects as a % of positive control at 10 μg/mL [2] [%] | Subjects with histamine release >15% of positive control [2] | solubility [1, 4] [µg/mL] | solubility in an acidic environment ([1]; acidic environment) |
| --- | --- | --- | --- | --- | --- | --- |
| KDLLENGAIFVTSG [RGW03] | < 620 | – | – | – | – | – |
| SAGMIPAEPGEA [RGW04A] | – | 0 | 0 | 0/43 | – | – |
| RDLLENGAIFLPSG [RGW03B] | 3850 | 0 | 1 | 0/43 | – | – |
| KGEAAIKLTSSAGVLSKK [RGW07D] | – | 0 | 3 | 0/20 | 4260 | – |
| GEAAIKLTSSAGVLS [RGW07] | – | 0 | 1 | 0/43 | 700 | poor solubility |
| GMIKSNDGPPI [RGW01] | – | 0 | 1 | 0/43 | – | – |
| GSSQIWIDHSSLSKS [RGW02] | – | 0 | 1 | 0/43 | – | – |
| KGEAAIKLTSSAGVLSK [RGW07C] | – | – | – | – | 1550 | – |
| KEGTLRFAAAQNRP [RGW05] | – | 0 | 0 | 0/43 | – | – |
| AINNDKTIDGRGAKVE [RGW06A] | – | 0 | 1 | 0/43 | – | – |
